Test system: SKOV-3 cells
Assay: Annexin V / propidium iodide apoptosis assay by flow cytometry
Assay type: cell-based, human
Details: for Apoptotic Cells (%) Mean, Day2 / Apoptotic Cells (%) Mean, Day3 / Apoptotic Cells (%) Mean, Day4: 1 μM, Q1 and Q2, mean of three experiments, * p < 0.01 vs untreated; for Apoptotic Cells (%) Mean, Day2 / percentage of apoptotic cells (Q1, Q2 quadrants), day 2: 2 days; for Apoptotic Cells (%) Mean, Day3 / percentage of apoptotic cells (Q1, Q2 quadrants), day 3: 3 days; for Apoptotic Cells (%) Mean, Day4 / percentage of apoptotic cells (Q1, Q2 quadrants), day 4: 4 days; for percentage of apoptotic cells (Q1, Q2 quadrants), day 2 / percentage of apoptotic cells (Q1, Q2 quadrants), day 3 / percentage of apoptotic cells (Q1, Q2 quadrants), day 4: 1 μΜ, 37 °C, representative experiment (Figure 5)
Text: We next evaluate the abilities of Con-3 and Con-7 at concentrations of 1 μΜ to induce cell death by determining the percentages of live, apoptotic and necrotic cells after treatment of SKOV-3 cells with the GnRH conjugates. As shown in Figure 5 and Figures S1–S3 on day 2, the majority of SKOV-3 cells were viable (Q4 quadrant), treated either with Con-3, Con-7 or mitoxantrone, whereas the percentage of apoptotic cells (late or early apoptotic) (Q1, Q2 quadrants) was only 10.1%, 10.87% and 13.1% after treatment with Con-3, Con-7 or mitoxantrone, respectively. […] Cell viability further decreased on day 4 with a concomitant increase in apoptosis. Specifically, the percentage of apoptotic cells was 53.5%, 59.6% and 54.3% after treatment with Con-3, Con-7 or mitoxantrone (Figure 5 and Figures S7–S9). In all phases, the percentage of the necrotic and late apoptotic cells (Q3 quadrant) was very small.
Figure 5 Determination of viability, apoptosis, or necrosis of SKOV-3 cells after their treatment with 1 μM Con-3, Con-7, or mitoxantrone for 2, 3, and 4 days at 37 °C. At the end of the incubation the cells were further incubated in binding buffer supplied by Biotium, (CF488A Apoptosis Detection kit) and analyzed on a flow cytometer (excitation 488 nm), in the FITC channel (filter 530 nm) for detection of the Annexin V-positive cellsand in the propidium iodide, or PI, channel (filter 616 nm) for detection of the PI-positive cells. The figures are from a representative experiment performed three times with similar results. A higher resolution of the images in Figure 5 is provided in the Supplementary Material (Figures S1–S9). TEXT PRINTED IN THE PICTURE: Con-3: Q3: 4,19 (Day 2); Q2: 7,12 (Day 2); Q4: 85,7 (Day 2); Q1: 2,98 (Day 2); Q3: 5,31 (Day3); Q2: 19,5 (Day3); Q4: 58,0 (Day3); Q1: 17,1 (Day3); Q3: 3,54 (Day4); Q2: 17,1 (Day4); Q4: 43,0 (Day4); Q1: 36,4 (Day4) | Con-7: Q3: 6,31 (Day 2); Q2: 7,74 (Day 2); Q4: 82,8 (Day 2); Q1: 3,13 (Day 2); Q3: 8,11 (Day3); Q2: 19,8 (Day3); Q4: 56,8 (Day3); Q1: 15,3 (Day3); Q3: 3,48 (Day4); Q2: 19,7 (Day4); Q4: 36,9 (Day4); Q1: 39,9 (Day4) | Mitoxantrone: Q3: 6,49 (Day 2); Q2: 9,40 (Day 2); Q4: 80,4 (Day 2); Q1: 3,67 (Day 2); Q3: 7,13 (Day3); Q2: 18,9 (Day3); Q4: 61,0 (Day3); Q1: 13,1 (Day3); Q3: 2,72 (Day4); Q2: 17,3 (Day4); Q4: 43,0 (Decimal sign as read) (Day4); Q1: 37,0 (Day4) DOUBTS OF THE COPYIST ABOUT THIS PICTURE: All quadrant values: the print is very small, and the decimal sign may be a comma or a point in every value / Con-3, Day 2, Q4: 85,7 or 86,7 / Con-3, Day 2, Q1: 2,98 or 2,96 / Con-3, Day3, Q3: 5,31 or 6,31 / Con-3, Day3, Q2: 19,5 or 19,6 / Con-3, Day3, Q4: 58,0 or 56,0 / Con-3, Day4, Q3: 3,54 or 3,64 / Con-3, Day4, Q1: 36,4 or 38,4 / Con-7, Day 2, Q3: 6,31 or 8,31 / Con-7, Day 2, Q4: 82,8 or 82,6 / Con-7, Day 2, Q1: 3,13 or 3,15 / Con-7, Day3, Q3: 8,11 or 6,11 / Con-7, Day3, Q2: 19,8 or 19,6 / Con-7, Day3, Q4: 56,8 or 58,8 / Con-7, Day3, Q1: 15,3 or 15,8 / Con-7, Day4, Q3: 3,48 or 3,46 / Con-7, Day4, Q4: 36,9 or 38,9 / Con-7, Day4, Q1: 39,9 or 38,9 / Mitoxantrone, Day 2, Q3: 6,49 or 8,49 / Mitoxantrone, Day 2, Q2: 9,40 or 8,40 / Mitoxantrone, Day 2, Q4: 80,4 or 60,4 / Mitoxantrone, Day 2, Q1: 3,67 or 3,87 / Mitoxantrone, Day3, Q2: 18,9 or 16,9 / Mitoxantrone, Day3, Q4: 61,0 or 81,0 / Mitoxantrone, Day3, Q1: 13,1 or 15,1 […]
SKOV-3 cells were seeded into 12-well plates at a density of 50,000 cells/well and incubated overnight in DMEM/F12 (1:1) containing 3.15 g/L glucose and 10% BCS, at 37 °C and 5% CO2. At the end of the incubation, the culture medium was replaced with a fresh one containing 3.15 g/L glucose and 2% BCS, with or without GnRH analogs or mitoxantrone at a concentration of 1 μΜ, and the cells were further incubated at 37 °C and 5% CO2 for 2, 3 and 4 days. […]

Question: For CCNC(=O)[C@@H]1CCCN1C(=O)[C@H](CCCNC(=N)N)NC(=O)[C@H](CC(C)C)NC(=O)[C@@H](CSSCCC(=O)OCCNCCNc1ccc(NCCNCCO)c2c1C(=O)c1c(O)ccc(O)c1C2=O)NC(=O)[C@H](Cc1ccc(O)cc1)NC(=O)[C@H](CO)NC(=O)[C@H](Cc1c[nH]c2ccccc12)NC(=O)[C@H](Cc1c[nH]cn1)NC(=O)[C@@H]1CCC(=O)N1 [Con-3], which “Apoptotic Cells (%) Mean, Day2” value is on record?
Answer: Its value is 13.68 * %.

Question: And the “Apoptotic Cells (%) Mean, Day3” value?
Answer: The value was 35.00 * %.

Question: And the “Apoptotic Cells (%) Mean, Day4” value?
Answer: Its value is 49.50 * %.

Question: And the “percentage of apoptotic cells (Q1, Q2 quadrants), day 2” value (“percentage of apoptotic cells … day 2” for short)?
Answer: Its value is 10.1%.

Question: And the “percentage of apoptotic cells (Q1, Q2 quadrants), day 3” value (from here on “percentage of apoptotic cells … day 3”)?
Answer: The value was 36.6%.

Question: What about the “percentage of apoptotic cells (Q1, Q2 quadrants), day 4” value (from here on “percentage of apoptotic cells … day 4”) of the same compound?
Answer: The value was 53.5%.

Question: Which “Apoptotic Cells (%) Mean, Day2” value does the source give for CCNC(=O)[C@@H]1CCCN1C(=O)[C@H](CCCNC(=N)N)NC(=O)[C@H](CC(C)C)NC(=O)[C@@H](CCCCNC(=O)CCCCCNC(=O)CCSSCC(=O)OCCNCCNc1ccc(NCCNCCO)c2c1C(=O)c1c(O)ccc(O)c1C2=O)NC(=O)[C@H](Cc1ccc(O)cc1)NC(=O)[C@H](CO)NC(=O)[C@H](Cc1c[nH]c2ccccc12)NC(=O)[C@H](Cc1c[nH]cn1)NC(=O)[C@@H]1CCC(=O)N1 [Con-7] here?
Answer: Its value is 13.81 * %.

Question: What about the “Apoptotic Cells (%) Mean, Day3” value of the same compound?
Answer: The value was 33.53 * %.

Question: And the “Apoptotic Cells (%) Mean, Day4” value?
Answer: The value was 51.17 * %.

Question: What about the “percentage of apoptotic cells … day 2” value of the same compound?
Answer: The value was 10.87%.

Question: And the “percentage of apoptotic cells … day 3” value?
Answer: The value was 35.1%.

Question: What about the “percentage of apoptotic cells … day 4” value of the same compound?
Answer: The value was 59.6%.

Question: How did the “Apoptotic Cells (%) Mean, Day2” value turn out when O=C1c2c(O)ccc(O)c2C(=O)c2c(NCCNCCO)ccc(NCCNCCO)c21 [mitoxantrone] was run?
Answer: Its value is 14.26 * %.

Question: And the “Apoptotic Cells (%) Mean, Day3” value?
Answer: The value was 33.60 * %.

Question: What about the “Apoptotic Cells (%) Mean, Day4” value of the same compound?
Answer: The value was 50.10 * %.

Question: And the “percentage of apoptotic cells … day 2” value?
Answer: Its value is 13.1%.

Question: And the “percentage of apoptotic cells … day 3” value?
Answer: The value was 32%.

Question: What about the “percentage of apoptotic cells … day 4” value of the same compound?
Answer: The value was 54.3%.

Reference: publication PMC11397358, “Cytotoxic Activity of Novel GnRH Analogs Conjugated with Mitoxantrone in Ovarian Cancer Cells” (Molecules, 2024)
